According to patent US11813230B2, “Composition for strengthening skin barrier, moisturizing skin or anti-aging” (COSMAX, INC., priority 2020, dated 2023):

Tests used:
Conditions in all cases: 37° C., 48 up to 72 hours, well color change
S. pneumoniae (CX-2) = assay type: cell-based, Streptococcus pneumoniae
Protocol: (§1) To analyze substance utilization by the isolated strains (Streptococcus pneumoniae, Streptococcus infantis, and Streptococcus mitis), tests were conducted in the following manner. BioLOG GP2 and API 50 were used in determining the substance utilization, and testing was performed using testing methods provided by Omnilog and Biomeriuse. The culturing temperature and media suitable to corresponding strains were selected, and 5 among cluster colonies incubated for 48 hours were taken and suspended in reagents before use. The inoculation amount was 150 μl. As the suspension, components of kits provided by various manufacturers were used. When the strains are yet to be inoculated, the suspension is in a transparent liquid phase. Inoculated plates and strips were incubated at 37° C. for 48 hours, and then the incubation of up to 72 hours was examined. Wells were in a transparent liquid phase at the time of inoculating, but the colors of the wells changed to purple or red, and the color-changed wells were determined to be positive.

S. infantis (CX-4) = assay: Substance utilization (BioLOG GP2 / API 50); assay type: cell-based, Streptococcus infantis
Protocol: as §1

S. mitis (CX-8) = assay: Substance utilization (BioLOG GP2 / API 50); assay type: cell-based, Streptococcus mitis
Protocol: as §1

| Compound | substance utilization by S. pneumoniae (CX-2) (S. pneumoniae (CX-2)) | substance utilization by S. infantis (CX-4) (S. infantis (CX-4)) | substance utilization by S. mitis (CX-8) (S. mitis (CX-8)) |
| --- | --- | --- | --- |
| [Cl-].[Na+] [1% NaCl, NaCl] | + | + | + |
| CC(O)C(=O)[O-].[Na+] (stereo not shown) [1% Sodium Lactate, Sodium Lactate] | + | + | + |
| OC[C@H]1O[C@@H](O[C@H]2[C@H](O)[C@@H](O)[C@H](O)O[C@@H]2CO)[C@H](O)[C@@H](O)[C@@H]1O [D-Cellobiose] | + | + | + |
| O=P(O)(O)OC[C@H]1OC(O)(CO)[C@@H](O)[C@@H]1O (stereo partly drawn) [D-Fructose-6-Po4] | – | – | + |
| OC[C@H]1O[C@H](OCC2O[C@@H](O)[C@H](O)[C@@H](O)[C@@H]2O)[C@H](O)[C@@H](O)[C@H]1O (stereo partly drawn) [D-Melibiose] | + | – | – |
| OC[C@H]1O[C@H](OC[C@H]2O[C@H](O[C@]3(CO)O[C@H](CO)[C@@H](O)[C@@H]3O)[C@H](O)[C@@H](O)[C@@H]2O)[C@H](O)[C@@H](O)[C@H]1O [D-Raffinose] | + | – | – |
| OC[C@H]1O[C@H](O[C@H]2[C@H](O)[C@@H](O)[C@H](O)O[C@@H]2CO)[C@H](O)[C@@H](O)[C@@H]1O [D-maltose] | + | + | + |
| O=C1O[C@H]([C@@H](O)CO)[C@@H](O)[C@@H]1O [L-Galactonic Acid Lactone] | – | – | + |
| [Cl-].[Li+] [Lithium Chloride] | – | – | + |
| O=[Te]([O-])[O-].[K+].[K+] [Potassium Tellurite] | + | + | + |
| CO[C@H]1/C=C/O[C@@]2(C)Oc3c(C)c([O-])c4c(O)c(cc(O)c4c3C2=O)NC(=O)/C(C)=C\C=C\[C@H](C)[C@H](O)[C@@H](C)[C@@H](O)[C@@H](C)[C@H](OC(C)=O)[C@@H]1C.[Na+] [Rifamycin SV] | – | + | + |
| OC[C@H]1O[C@H](OC[C@H]2O[C@H](OC[C@H]3O[C@H](O[C@]4(CO)O[C@H](CO)[C@@H](O)[C@@H]4O)[C@H](O)[C@@H](O)[C@@H]3O)[C@H](O)[C@@H](O)[C@H]2O)[C@H](O)[C@@H](O)[C@H]1O [Stachyose] | + | + | + |
| COc1cc(-c2ccc(-n3nc(-c4ccccc4)n[n+]3-c3ccccc3)c(OC)c2)ccc1-n1nc(-c2ccccc2)n[n+]1-c1ccccc1.[Cl-].[Cl-] [Tetrazolium Blue] | – | + | + |
| D-Salicin | – | – | + |
| D-Turanose | + | – | – |
| Dextrin | + | + | + |
| Pectin | + | + | + |
| Tween 40 | + | + | – |
